Results reported in article PMC7405733, “Pharmacokinetics of micafungin in patients treated with extracorporeal membrane oxygenation: an observational prospective study” (Revista Brasileira de Terapia Intensiva, 2020).
≈ marks a conversion by molar mass, not a printed value. Read-outs that look alike come from different tables or passages of the source. *1 amine or outer side, *2 acyl side, *3 side chain or, on linkers, in order; H or OH if unused. Where a SMILES comes first, the peptide text is derived from it. Bridges are numbered along the chain shown (N, C = ends). [ ]: non-standard residue; d: D form. The star is where a group is joined. hTyr(3S-OH,4S-OH,3'-OSO3H) = N[C@H](C(=O)O)[C@H](O)[C@@H](O)c1ccc(O)c(OS(=O)(=O)O)c1; Orn(4R-OH,5R-OH) = O=C([C@H](C[C@@H](O)[C@@H](O)N[*:3])N[*:1])[*:2]; Pro(3S-OH,4S-Me) = C[C@H]1CN[C@H](C(=O)O)[C@H]1O; X1 = CCCCCOc1ccc(-c2cc(-c3ccc(C(=O)*)cc3)no2)cc1; Gln(3R-OH) = NC(=O)C[C@@H](O)[C@H](N)C(=O)O; Hyp = O=C(O)[C@@H]1C[C@@H](O)CN1

Columns and labels:
[1] = Micafungin plasma pharmacokinetics in adult patients treated with ECMO (samples before and after the oxygenation membrane); type: in vivo, human; details: for clearance / Vd / Cmax / AUC: human
Procedure: (§1) We conducted an observational, prospective, noninterventional and nondrug-linked study of the PKs and safety of micafungin in adult patients treated with ECMO in two Spanish hospitals: the intensive care unit (ICU) of the Hospital Universitario Marqués de Valdecilla, Santander, and the Anaesthesiology and Reanimation Department of the Hospital Universitario La Fe, Valencia, Spain. Prophylactic micafungin was administered in all patients. The study period was from January 2015 until April 2016. The PK analysis was performed in the Hospital del Mar, Barcelona, Spain. The trial was authorized by the corresponding Ethics Committees (CEIC Approval Number 17/2014), and Informed Consent of all the patients or their legal representatives was obtained.
Micafungin was given at a dose of 100mg diluted in 100ml of 0.9% saline in a 60-minute infusion always protected from light to prevent degradation. Five mL blood samples were taken, protected from light, on days 1 and 4 of the treatment with micafungin. The samples were taken through an access point before and after the oxygenation membrane (input and output, respectively). The extraction times for the calculation of complete PK curves were as follows: before the administration of the drug (trough or zero time); immediately after intravenous infusion (1-hour peak or end-of-infusion peak); and 3, 5, 8, 18 and 24 hours after the beginning of the infusion. Samples were centrifuged at a speed of 1,000g for ten minutes at 4 °C. The supernatant plasma was aliquoted into volumes of 150µl that were frozen at -80 °C until they were to be analyzed. The measurement of the total micafungin concentration (free plus protein-bound fractions) was performed by means of a high-performance liquid chromatography technique.
The following PK parameters were calculated: area under the curve (AUC), CL, Vd and plasma half-life time (t/2) with a noncompartmental PK data analysis using a nonparametric method: the Mann-Whitney test and the Wilcoxon signed-rank test (paired test, in consecutive days). For precision analysis, confidence intervals were calculated by bootstrapping with 1,000 repetitions using the method […] (BCa).
The calculation of the differences in the concentration of micafungin at the input (Cin) and output (Cout) of the oxygenator membrane allowed us to calculate the oxygenator’s degree of extraction. It should be remembered that there may be losses of micafungin in tubes and cannula and in the centrifugal pump.
Only continuous epidemiological and clinical data are presented as the mean and standard deviation (SD), and categorical data are presented as absolute numbers because of the small sample size. The rest of the parameters, including Cmin and Cmax, are presented as medians.

[2] = test system: candidemia; experiment: Candidemia in patients on ECMO receiving prophylactic micafungin; type: in vivo, human; details: prophylactic micafungin 100mg, 12 adult ECMO patients
Procedure: as §1

[3] = design: method as in PMID 25947367; details: daily dose of 100mg, cited from earlier work
[4] = test system: Candida albicans; design: method as in PMID 24153129, PMID 21300835; details: published for Candida albicans; cited from earlier work
[5] = ECMO patients vs non-ECMO patients; hemodialysis was used in 4 patients; cited from earlier work
Description: Adsorption by the hemoﬁlter appears to be the most likely explanation when this is in line with an ECMO system. In an “ex vivo” study, the recovery of micafungin was 91% when the in-line hemofilter was removed.

Which results are given for `CCCCCOc1ccc(-c2cc(-c3ccc(C(=O)N[C@H]4C[C@@H](O)[C@@H](O)NC(=O)[C@@H]5[C@@H](O)[C@@H](C)CN5C(=O)[C@H]([C@H](O)CC(N)=O)NC(=O)[C@H]([C@H](O)[C@@H](O)c5ccc(O)c(OS(=O)(=O)O)c5)NC(=O)[C@@H]5C[C@@H](O)CN5C(=O)[C@H]([C@@H](C)O)NC4=O)cc3)no2)cc1` [micafungin] (X1-[Orn(4R-OH,5R-OH)]T[Hyp][hTyr(3S-OH,4S-OH,3'-OSO3H)][Gln(3R-OH)][Pro(3S-OH,4S-Me)]; lactam 1-C)?
Cmin out ([1]; Table 2, day 1, after membrane, 100mg iv, ECMO patients, plasma HPLC, median): 1410 ng/mL; CL in ([1]; Table 2, day 1, before membrane, 100mg iv, ECMO patients, noncompartmental, median): 1.07 L/h; Cmin in ([1]; Table 2, day 1, before membrane, 100mg iv, ECMO patients, plasma HPLC, median): 1410 ng/mL; Cmin out ([1]; Table 2, day 4, after membrane, 100mg iv, ECMO patients, plasma HPLC, median): 1750 ng/mL; Cmin in ([1]; Table 2, day 4, before membrane, 100mg iv, ECMO patients, plasma HPLC, median): 1800 ng/mL; AUCin on day one ([1]; adult ECMO patients, 100mg 60-minute iv infusion, day 1, sample before the membrane, plasma total concentration by HPLC, noncompartmental, 95%CI 52.8 - 73.4, 10 patients): 62100 ng·h/mL; AKI AUCout ([1]; day 1, ECMO patients with acute kidney injury, after membrane, 100mg iv, p = 0.71): 69.3 p = 0.71; Hepatic failure AUCout ([1]; day 1, ECMO patients with hepatic failure, after membrane, 100mg iv, p = 0.91): 61.6 p = 0.91; AKI AUCout ([1]; day 4, ECMO patients with acute kidney injury, after membrane, 100mg iv, p = 0.88): 106.7 p = 0.88; Hepatic failure AUCout ([1]; day 4, ECMO patients with hepatic failure, after membrane, 100mg iv, p = 0.68): 85.2 p = 0.68; concentration difference between samples before the membrane (C in) and after the membrane (C out) ([1]; first day of treatment, 100mg iv, ECMO patients, figure 1A): did not show any concentration difference; concentration difference between samples before the membrane (Cin) and after the membrane (Cout) ([1]; fourth day of treatment, 100mg iv, ECMO patients, figure 1B): did not show any concentration difference; clearance ([1]; plasma, iv, 100 mg, Table 2, day 1, after membrane, 100mg iv, ECMO patients, noncompartmental, median, read-out: CL out (converted)): 16.5 mL/min; Vd ([1]; plasma, iv, 100 mg, Table 2, day 1, after membrane, 100mg iv, ECMO patients, noncompartmental, median, read-out: Vd out): 27.2 L; Cmax ([1]; plasma, iv, 100 mg, Table 2, day 1, after membrane, 100mg iv, ECMO patients, plasma HPLC, median, read-out: Cmax out): 4950 ng/mL; AUC ([1]; plasma, iv, 100 mg, Table 2, day 1, after membrane, 100mg iv, ECMO patients, plasma HPLC, noncompartmental, median, read-out: AUC out): 54100 ng·h/mL; Vd ([1]; plasma, iv, 100 mg, Table 2, day 1, before membrane, 100mg iv, ECMO patients, noncompartmental, median, read-out: Vd in): 28.6 L; Cmax ([1]; plasma, iv, 100 mg, Table 2, day 1, before membrane, 100mg iv, ECMO patients, plasma HPLC, median, read-out: Cmax in): 5850 ng/mL; clearance ([1]; plasma, iv, 100 mg, Table 2, day 4, after membrane, 100mg iv, ECMO patients, noncompartmental, median, read-out: CL out (converted)): 12.8 mL/min; Vd ([1]; plasma, iv, 100 mg, Table 2, day 4, after membrane, 100mg iv, ECMO patients, noncompartmental, median, read-out: Vd out): 18.1 L; Cmax ([1]; plasma, iv, 100 mg, Table 2, day 4, after membrane, 100mg iv, ECMO patients, plasma HPLC, median, read-out: Cmax out): 6750 ng/mL; AUC ([1]; plasma, iv, 100 mg, Table 2, day 4, after membrane, 100mg iv, ECMO patients, plasma HPLC, noncompartmental, median, read-out: AUC out): 81000 ng·h/mL; clearance ([1]; plasma, iv, 100 mg, Table 2, day 4, before membrane, 100mg iv, ECMO patients, noncompartmental, median, read-out: CL in (converted)): 11.8 mL/min; Vd ([1]; plasma, iv, 100 mg, Table 2, day 4, before membrane, 100mg iv, ECMO patients, noncompartmental, median, read-out: Vd in): 16.1 L; Cmax ([1]; plasma, iv, 100 mg, Table 2, day 4, before membrane, 100mg iv, ECMO patients, plasma HPLC, median, read-out: Cmax in): 12200 ng/mL; AUC ([1]; plasma, iv, 100 mg, Table 2, day 4, before membrane, 100mg iv, ECMO patients, plasma HPLC, noncompartmental, median, read-out: AUC in): 88800 ng·h/mL; AUC ([1]; plasma, iv, 100 mg, day 1, ECMO patients without acute kidney injury, after membrane, 100mg iv, read-out: No AKI AUCout): 61900 ng·h/mL; AUC ([1]; plasma, iv, 100 mg, day 1, ECMO patients without hepatic failure, after membrane, 100mg iv, read-out: No hepatic failure AUCout): 66100 ng·h/mL; AUC ([1]; plasma, iv, 100 mg, day 4, ECMO patients without acute kidney injury, after membrane, 100mg iv, read-out: No AKI AUCout): 95100 ng·h/mL; AUC ([1]; plasma, iv, 100 mg, day 4, ECMO patients without hepatic failure, after membrane, 100mg iv, read-out: No hepatic failure AUCout): 117000 ng·h/mL; AUC ([1]; adult ECMO patients, 100mg 60-minute iv infusion, day 1, sample after the membrane, plasma HPLC, noncompartmental, 95%CI 52.4 - 76.7, 10 patients, read-out: AUCout on day one): 63400 ng·h/mL; candidemia in patients on ECMO who received prophylactic micafungin [2]: No candidemia was observed; AUC after a daily dose of 100mg in ICU patients ([3]; ICU patients (without ECMO)): 78.6 mg·h/L; AUC after a daily dose of 100mg in healthy adults ([3]; healthy adults): 132.6 mg·h/L; MIC90 [4]: 0.03 µg/mL (≈ 0.0236 µM); reduction in the AUC in the ECMO group versus non-ECMO control group [5]: 23%
